According to patent US5686449A, “1,5-benzodiazepines useful as gastrinor CCK-antagonists” (priority 1994, dated 1997):
Like-named read-outs stand apart in the source and are kept apart here.

Columns and labels:
CCK-A receptor = assay: CCK receptor binding, CCK-A (Pancreas Assay)
Description: (§1) Exp & Ther. 261, 1056-1063, 1992.
(§2) The binding affinity of the compounds of the invention for the CCK-A receptor (Pancreas Assay) and CCK-B receptor (guinea pig cortex assay) was determined using the procedure of G Dal Forno et al J. Pharmacol. Exp & Ther. 261-1056-1063.

CCK-B receptor = target: T1, CCK-B receptor (Cavia porcellus, UniProt H0VZC5); assay: CCK receptor binding, CCK-B (guinea pig cortex assay)
T1 construct: CCK-B receptor (guinea pig cortex assay); from tissue; host or cells: guinea pig cortex
T1 sequence (H0VZC5 1-426): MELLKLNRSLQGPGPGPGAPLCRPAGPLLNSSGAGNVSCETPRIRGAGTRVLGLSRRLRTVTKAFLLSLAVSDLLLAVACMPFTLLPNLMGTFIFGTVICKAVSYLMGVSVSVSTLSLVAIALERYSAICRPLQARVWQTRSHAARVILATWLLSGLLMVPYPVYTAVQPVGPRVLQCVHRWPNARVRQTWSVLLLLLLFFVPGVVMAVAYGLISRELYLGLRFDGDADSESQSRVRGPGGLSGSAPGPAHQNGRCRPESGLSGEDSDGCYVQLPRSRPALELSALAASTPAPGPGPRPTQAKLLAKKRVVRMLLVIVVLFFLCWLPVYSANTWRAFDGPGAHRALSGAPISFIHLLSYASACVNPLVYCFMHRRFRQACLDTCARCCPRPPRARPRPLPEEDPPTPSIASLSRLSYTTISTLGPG
Description: as §1, §2

[1] = CCK-B receptor, guinea pig cortex assay, read-out: pKi CCK-B (converted)

pKi CCK-A (CCK-A receptor)	Ki (CCK-B receptor; [1]) [nM]	Structure (SMILES)	Ki (CCK-B receptor) [nM]
6.54	1.38	CC(C)CCN1C(=O)C(NC(=O)Nc2ccccc2)C(=O)N(CC23CC4CC(CC(C4)C2)C3)c2ccccc21 (centres unmarked) [Example 1, N-[1-(1-Adamantylmethyl)-2,4-dioxo-5-(3-methylbut-1-yl)-2,3,4,5-tetrahydro-1H-1,5-benzodiazepin-3-yl]-N'-phenylurea]	
6.8	0.398	Cc1cccc(NC(=O)NC2C(=O)N(CCO)c3ccccc3N(CC34CC5CC(CC(C5)C3)C4)C2=O)c1 (centres unmarked) [Example 10]	
	1	CN1C(=O)C(NC(=O)Nc2ccccc2)C(=O)N(CC23CC4CC(CC(C4)C2)C3)c2ccccc21 (single isomer, unassigned; (-)) [Example 8, (-)-N-[1-(Adamantylmethyl)-2,4-dioxo-5-methyl-2,3,4,5-tetrahydro-1H-1,5-benzodiazepin-3-yl]-N'-phenylurea]	
6.09	0.389	O=C(Nc1ccccc1)NC1C(=O)N(CCCO)c2ccccc2N(CC23CC4CC(CC(C4)C2)C3)C1=O (centres unmarked) [Example 14, N-[1-(Adamantane-1-methyl)-2,4-dioxo-5-(3-hydroxypropyl)-2,3,4,5-tetrahydro-1H-1,5-benzodiazepin-3-yl]-N'-phenylurea]	
6.16	2.04	CCCCN1C(=O)C(NC(=O)Nc2ccc(OC)cc2)C(=O)N(CCC(C)C)c2ccccc21 (centres unmarked) [Example 12]	
	0.251	O=C(Nc1ccccc1)NC1C(=O)N(CCO)c2ccccc2N(CC23CC4CC(CC(C4)C2)C3)C1=O (single isomer, unassigned; (-)) [Example 11, (-)-N-[1-(Adamantylmethyl)-2,4-dioxo-5-(2-hydroxyethyl)-2,3,4,5-tetrahydro-1H-1,5-benzodiazepin-3-yl]-N'-phenylurea]	
	1.41	O=C(Nc1ccccc1)NC1C(=O)N(CCO)c2ccccc2N(CC23CC4CC(CC(C4)C2)C3)C1=O (centres unmarked) [Example 9, N-[1-(Adamantylmethyl)-2,4-dioxo-5-(2-hydroxyethyl)-2,3,4,5-tetrahydro-1H-1,5-benzodiazepin-3-yl]-N'-phenylurea]	

Structure (SMILES)	pKi CCK-A (CCK-A receptor)	Ki (CCK-B receptor; [1]) [nM]	Ki (CCK-B receptor) [nM]
O=C(Nc1ccccc1)NC1C(=O)N(CC23CC4CC(CC(C4)C2)C3)c2ccccc2N(C2CCCCC2)C1=O (centres unmarked) [Example 3]	6.25		2.4
CC(C)CCN1C(=O)C(NC(=O)Nc2cccc(N(C)C)c2)C(=O)N(CC23CC4CC(CC(C4)C2)C3)c2ccccc21 (centres unmarked) [Example 2, N-[1-(1-Adamantylmethyl)-2,4-dioxo-5-(3-methylbut-1-yl)-2,3,4,5-tetrahydro-1H-1,5-benzodiazepin-3-yl]-N'-[3-(N,N-dimethylamino)phenyl]urea]	6.02		5.62
CC(C)CCN1C(=O)C(NC(=O)Oc2cccc(N(C)C)c2)C(=O)N(CC23CC4CC(CC(C4)C2)C3)c2ccccc21 (centres unmarked) [Example 4, 1-(1-Adamantylmethyl)-3-[3-(N,N-dimethylamino)phenyloxycarbonyl]amino-2,4-dioxo-5-(3-methylbut-1-yl)-2,3,4,5-tetrahydro-1H-1,5-benzodiazepine]	5.80		7.59
